Assay results: publication PMC11968506, “Toxicokinetics and analytical toxicology of the phenmetrazine-derived new psychoactive substance 3,4-methylenedioxyphenmetrazine studied by means of in vitro systems” (Archives of Toxicology, 2025)

Key:
CYP2B6 = target: T1, CYP2B6 (Homo sapiens, UniProt P20813); test: CYP inhibition cocktail assay in pHLM, CYP2B6 (bupropion); settings: inhibitor 20 µM
T1 sequence (P20813 1-491): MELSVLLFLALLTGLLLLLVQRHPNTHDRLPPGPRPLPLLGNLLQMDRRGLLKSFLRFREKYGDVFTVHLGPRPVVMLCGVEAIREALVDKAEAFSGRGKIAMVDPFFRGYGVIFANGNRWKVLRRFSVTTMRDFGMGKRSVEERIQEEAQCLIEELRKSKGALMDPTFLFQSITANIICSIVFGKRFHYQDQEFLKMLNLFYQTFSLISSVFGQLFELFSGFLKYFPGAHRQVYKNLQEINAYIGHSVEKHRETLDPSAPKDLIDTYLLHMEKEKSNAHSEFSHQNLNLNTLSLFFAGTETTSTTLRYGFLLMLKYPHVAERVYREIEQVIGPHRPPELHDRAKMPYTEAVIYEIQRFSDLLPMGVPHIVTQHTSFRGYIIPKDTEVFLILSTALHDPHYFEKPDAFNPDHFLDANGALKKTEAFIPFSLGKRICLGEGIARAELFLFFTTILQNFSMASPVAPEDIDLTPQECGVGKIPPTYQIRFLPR
Protocol: A modified dual-cocktail based method (Dinger et al. [2014b]) was used. Substrate cocktail A consisted of 8.9 µM dextromethorphan (CYP2D6), 86 µM testosterone (CYP3A4), 3.5 µM diclofenac (CYP2C9), and 12 µM phenacetin (CYP1A2). Substrate cocktail B included 30 µM bupropion (CYP2B6), 2 µM amodiaquine (CYP2C8) and 21 µM omeprazole (CYP2C19). Substrate concentrations were near their respective Michaelis–Menten constant (Km) values (Dinger et al. [2014a]) and all concentrations are final. Enzyme inhibition was investigated using a positive control, a test group, a control group, an interference group, and a negative control. In the test group, specific inhibitors were replaced by MDPM (20 µM). Instead of inhibitors, phosphate buffer was used in the control group. Enzymes were replaced with phosphate buffer in the negative control group. The interference group was incubated like the control group, but the reaction was stopped with 20 µM MDPM in acetonitrile, also containing 2.5 µM trimipramine-d3. All groups were incubated with a NADPH-regenerating system, consisting of 5 mM isocitrate, 2 U/mL isocitrate dehydrogenase, 5 mM Mg^2+, and 1.2 mM NADP^+. Further, substrate cocktail A or B, 90 mM phosphate buffer (pH 7.4), and 200 U/mL superoxide dismutase were added to each group. […] All groups were preincubated for 10 min at 37 °C. Then, pHLM (0.4 mg microsomal protein/mL) was added to each group except the negative control. Incubations were done for 15 min at 37 °C. Therefore, 50 µL of acetonitrile (− 20 °C) containing 2.5 µM trimipramine-d3 as internal standard was added. Incubations were done in triplicates and organic solvent in the incubation mixture was below 1% (Chauret et al. [1998]). Afterwards the samples were vortexed and centrifuged for 2 min at 18,407×g. 70 µL of the supernatant were transferred to autosampler vials and 10 µL were injected onto the LC-HRMS/MS system. Enzyme inhibition was evaluated by metabolite formation. […] The following settings were used: unpaired; one-tailed; significance level, 0.05; confidence intervals, 99%.

CYP2D6 = CYP2D6 (Homo sapiens, UniProt P10635); test: Monooxygenase mapping (ten human cDNA-expressed CYP isoforms and FMO3); assay type: in vitro ADME; design: Then, pHLM (0.4 mg microsomal protein/mL) was added to each group except the negative control; tissue Discovery Life Sciences; host or cells: pooled human liver microsomes, 25 donors; settings: MDPM 25 µM, CYP 50 pmol/mL each or FMO3 0.25 mg protein/mL, 90 and 270 min
Protocol: As described elsewhere (Wagmann et al. [2016]) and with minor modifications, MDPM (25 µM) was incubated with 2.5 mM isocitrate, 0.8 U/mL isocitrate dehydrogenase, 100 U/mL superoxide dismutase, 0.6 mM NADP^+, 2.5 mM Mg^2+ and CYP1A2, CYP2A6, CYP2B6, CYP2C8, CYP2C9, CYP2C19, CYP2D6, CYP2E1, CYP3A4, CYP3A5 (50 pmol/mL each), or FMO3 (0.25 mg protein/mL) for 90 and 270 min at 37 °C. For incubations with CYP2A6 or CYP2C9, phosphate buffer was replaced with 90 mM Tris buffer, according to the manufacturer’s guideline. Thirty µL aliquots were taken at both timepoints. The reaction was stopped using 20 µL acetonitrile (− 20 °C) with 2.5 µM trimipramine-d3 as an internal standard. All incubations were done in duplicates and concentrations are final. […] Negative control samples without enzymes and blank samples without substrate were incubated to identify not metabolically formed compounds and to confirm the absence of interfering compounds.

Sequence of CYP2D6 (P10635 whole entry, canonical isoform): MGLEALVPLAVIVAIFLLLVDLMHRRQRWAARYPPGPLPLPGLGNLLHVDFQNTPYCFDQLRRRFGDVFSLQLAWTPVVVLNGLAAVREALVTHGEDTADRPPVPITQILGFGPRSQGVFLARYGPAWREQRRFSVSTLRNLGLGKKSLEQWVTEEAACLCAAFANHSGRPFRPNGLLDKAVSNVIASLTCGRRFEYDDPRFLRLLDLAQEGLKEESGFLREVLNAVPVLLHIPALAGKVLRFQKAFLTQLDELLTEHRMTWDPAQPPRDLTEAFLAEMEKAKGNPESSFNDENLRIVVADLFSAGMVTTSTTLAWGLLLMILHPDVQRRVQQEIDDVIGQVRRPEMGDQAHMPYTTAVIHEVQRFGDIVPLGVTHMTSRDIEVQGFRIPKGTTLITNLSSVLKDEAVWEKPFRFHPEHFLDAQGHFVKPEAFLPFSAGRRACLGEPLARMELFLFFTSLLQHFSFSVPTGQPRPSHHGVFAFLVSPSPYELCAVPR

With `CC1NCCOC1c1ccc2c(c1)OCO2` (stereo not drawn) [MDPM, 2-(1,3-benzodioxol-5-yl)-3-methylmorpholine] the CYP2B6 metabolite formation (CYP2B6; bupropion 30 µM, pHLM 0.4 mg/mL, 15 min, control without inhibitor = 100%) was 113%, the “inhibition of CYP2B6” value (CYP2B6; bupropion, pHLM, t-test versus control) was “no significant inhibition” and the “isozymes forming the demethylenyl metabolite (O-demethylenation of MDPM)” value (CYP2D6) was “exclusively by CYP2D6”.
